Experimental data taken from patent US4168318A, “1-(2,4,6-Trihydroxyphenyl)-propanedione-(1,2)-compounds and therapeutic compositions” (priority 1974, dated 1979).
Where two headings read alike, the source gives them in different places. Marks after values point to notes of the source that are not given here.

What was measured:
[1] = Acute toxicity / acute tolerance after i.v. injection in mice (Experiment A); type: in vivo, mice (male and female SPF-mice, stock NMRI); conditions: mouse, in vivo, iv; for mortality at 336 h: N-methyl glucamine salt, 14 days observation, read-out: death rate %; for LD50 at 336 h: i.v., given as N-methyl glucamine salt, expressed as Compound, read-out: DL50, converted to the free compound
Protocol: (§1) The acute toxicity of the compounds of the invention was tested on mice, and since the substances are substantially nontoxic after oral administration, the acute tolerance of the two Compounds B and C in their methyl glucamine salts form was determined after i.v. injection. This form of preparation was also chosen for the pharmacological measurement of the antiphalloidine effect.
(§2) Experimental animals were male and female SPF-mice, stock NMRI, of the firm of Voss, Tuttlingen, Germany, having a weight of about 25-30 g. each. All animals were housed under identical conditions and were given "Sniff" standard food and drinking water ad libitum. The mice were administered the dosages once in 20 ml 0.9% NaCl+4% PVP/kg i.v. at an injection rate of approximately 1 ml/min. The observation time was 14 days.
(§3) 1. Compound B as N-methyl glucamine salt.
(§4) 2. Compound C as N-methyl glucamine salt.
(§5) 3. Polyvinyl pyrrolidone (PVP) of Fluka, mol. wt.~10,000 stock solution: 4% PVP dissolved in 0.9% NaCl.

mice = assay: as above; type: in vivo, mice (male and female SPF-mice, stock NMRI); conditions: for death rate/No. / death rate %: 14 days observation; for death rate/day, 2nd: 2nd day; for death rate/day, 3rd: 3rd day; for death rate/day, 1st: 1st day; for acute symptoms of non-tolerance: mice; for DL50, converted to the free compound: given as N-methyl glucamine salt, expressed as Compound
Protocol: as §1, §2, §3, §4, §5

[2] = test system: phalloidine-induced damage to the liver; assay: Anti-phalloidine effect: serum enzymes GOT and GPT (Experiment C); type: in vivo, mice (female SPF-mice, stock NMRI); conditions: 140.5 mg/kg i.v. as N-methyl glucamine salt 1 hour before phalloidine 1.5 mg/kg i.p.
Protocol: As an additional pharmacological measurement, the antiphalloidine effect of Compound C as its N-methyl glucamine salt i.v. was subsequently determined.
1.5 mg phalloidine, predissolved in 3 ml methanol ad 20 ml
Experimental animals were female SPF-mice, stock NMRI, of the firm of Voss, Tuttlingen, having a weight of about 25 g. All animals were housed under identical conditions and were given "Ssniff" standard food and drinking water ad libitum. Compound C as its N-methyl glucamine salt was injected in a dosage of 140.5 mg/kg i.v. 1 hour before the phalloidine poisoning (1.5 mg/kg i.p.). The control animals received 40.5 mg/kg N-methyl glucamine salt i.v. after a period of 24 hours subsequent to the damage to the liver, blood was taken from the mice from the retroorbital venae plexus for the determination of the serum enzymes GOT and GPT.

[3] = test system: liver damage induced by phalloidine; assay: Anti-phalloidine effect: death rate and survival time after phalloidine poisoning (Experiment B); type: in vivo, mice (male and female, homebred strain, stock Garvens); conditions: 140.5 mg/kg i.v. as N-methyl glucamine salt 1 hour before phalloidine 3 mg/kg i.p.
Protocol: The liver-protective effect of the compounds B and C according to the invention in the form of their water-soluble N-methyl glucamine salts was tested on mice by antagonizing liver damage induced by phalloidine with treatment using the compounds of the invention.
140.5 mg of Compound B/25 ml 0.9% NaCl+4% PVP/kg i.v.
40.5 mg MG/25 ml 0.9% NaCl+4% PVP/[…] i.v.
Phalloidine, predissolved in 3 ml methanol to 20 ml 0.9%
Experimental animals were male and female mice of a homebred strain, stock Garvens, having a weight of about 20-25 g. All animals were housed under identical conditions and were given "Ssniff" standard food and drinking water ad libitum.
Compound B as its N-methyl glucamine salt was injected in a dosage of 140.5 mg/kg i.v. 1 hour prior to administration of phalloidine at 3 mg/kg i.p. (to induce damage to the liver). The control animals received 40.5 mg/kg N-methyl glucamine salt i.v. The death rate and survival time after the phalloidine poisoning were registered. The observation time was 7 days.

[4] = female mice, 424.3 mg/kg i.v., N-methyl glucamine salt
[5] = female mice, 504.6 mg/kg i.v., N-methyl glucamine salt
[6] = female mice, 600 mg/kg i.v., N-methyl glucamine salt
[7] = male mice, 424.3 mg/kg i.v., N-methyl glucamine salt
[8] = male mice, 504.6 mg/kg i.v., N-methyl glucamine salt
[9] = male mice, 600 mg/kg i.v., N-methyl glucamine salt
[10] = female mice, 570 mg/kg i.v., N-methyl glucamine salt
[11] = female mice, 680 mg/kg i.v., N-methyl glucamine salt
[12] = female mice, 800 mg/kg i.v., N-methyl glucamine salt
[13] = female mice, 960 mg/kg i.v., N-methyl glucamine salt
[14] = male mice, 425 mg/kg i.v., N-methyl glucamine salt
[15] = male mice, 714.1 mg/kg i.v., N-methyl glucamine salt
[16] = male mice, 850 mg/kg i.v., N-methyl glucamine salt
[17] = male mice, 1200 mg/kg i.v., N-methyl glucamine salt
[18] = male mice, 1700 mg/kg i.v., N-methyl glucamine salt

**Q.** Which results are given for COc1cc(C2Oc3c(O)cc(CC(=O)C(=O)c4c(O)cc(O)cc4O)cc3C2CO)ccc1O (stereo not drawn) [Compound C]?
**A.** mortality at 336 h ([1]; 300 mg/kg, female mice, 300 mg/kg i.v.): 0%; mortality at 336 h ([1]; 300 mg/kg, male mice, 300 mg/kg i.v.): 0%; mortality at 336 h ([1]; 424.3 mg/kg, female mice, 424.3 mg/kg i.v.): 80%; mortality at 336 h ([1]; 424.3 mg/kg, male mice, 424.3 mg/kg i.v.): 40%; mortality at 336 h ([1]; 504.6 mg/kg, female mice, 504.6 mg/kg i.v.): 100%; mortality at 336 h ([1]; 504.6 mg/kg, male mice, 504.6 mg/kg i.v.): 100%; mortality at 336 h ([1]; 600 mg/kg, female mice, 600 mg/kg i.v.): 100%; mortality at 336 h ([1]; 600 mg/kg, male mice, 600 mg/kg i.v.): 100%; LD50 at 336 h ([1]; female mice): 274 mg/kg; LD50 at 336 h ([1]; male mice): 295 mg/kg; death rate/No. (mice; female mice, 300 mg/kg i.v., N-methyl glucamine salt): 0/10; death rate/day, 2nd (mice; [4]): 1; death rate/day, 3rd (mice; [4]): 5; death rate/day, 4th (mice; female mice, 424.3 mg/kg i.v., N-methyl glucamine salt, 4th day): 2; death rate/No. (mice; [4]): 8/10; death rate/day, 1st (mice; [5]): 5; death rate/No. (mice; [5]): 5/5; death rate/day, 1st (mice; [6]): 5; death rate/No. (mice; [6]): 5/5; death rate/No. (mice; male mice, 300 mg/kg i.v., N-methyl glucamine salt): 0/10; death rate/day, 2nd (mice; [7]): 3; death rate/day, 3rd (mice; [7]): 1; death rate/No. (mice; [7]): 4/10; death rate/day, 1st (mice; [8]): 5; death rate/No. (mice; [8]): 5/5; death rate/day, 1st (mice; [9]): 5; death rate/No. (mice; [9]): 5/5; acute symptoms of non-tolerance (mice; i.v., N-methyl glucamine salt): accelerated respiration, laying on their side, and clonic tonic cramps before death actually occurred; damage to the liver, measured by the increase of serum enzymes GOT and GPT [2]: entirely prevented; GPT in the serum ([2]; female mice, 24 hours after, control 667.4±324.6): 13.4±0.9 mU/ml; GOT in the serum ([2]; female mice, 24 hours after, control 1489.2±904.7): 38.7±2.9 mU/ml

**Q.** Which death rate % (mice; [10]) does the source give for COc1cc(C2Oc3cc(CC(=O)C(=O)c4c(O)cc(O)cc4O)ccc3OC2CO)ccc1O (stereo not drawn) [Compound B] here?
**A.** Its death rate % is 0%.

**Q.** And the “death rate/No.” value (mice; [10])?
**A.** The value was 0/10.

**Q.** What about the “death rate/day, 1st” value (mice; [11]) of the same compound?
**A.** Its value is 1.

**Q.** What about the death rate % (mice; [11]) of the same compound?
**A.** Its death rate % is 10%.

**Q.** What about the “death rate/No.” value (mice; [11]) of the same compound?
**A.** The value was 1/10.

**Q.** And the survival time span (mice; female mice, 680 mg/kg i.v., N-methyl glucamine salt, ' = minutes, ^h = hours)?
**A.** The survival time span was ~23^h minutes-hours.

**Q.** What about the “death rate/day, 1st” value (mice; [12]) of the same compound?
**A.** Its value is 3.

**Q.** What about the death rate % (mice; [12]) of the same compound?
**A.** The death rate % was 30%.

**Q.** And the “death rate/No.” value (mice; [12])?
**A.** Its value is 3/10.

**Q.** What about the “death rate/day, 1st” value (mice; [13]) of the same compound?
**A.** The value was 7.

**Q.** What about the death rate % (mice; [13]) of the same compound?
**A.** Its death rate % is 70%.

**Q.** What about the “death rate/No.” value (mice; [13]) of the same compound?
**A.** The value was 7/10.

**Q.** What about the “DL50, converted to the free compound” value (mice; female mice, i.v., 20160 min) of the same compound?
**A.** The value was 604.98 mg/kg.

**Q.** And the death rate % (mice; [14])?
**A.** Its death rate % is 0%.

**Q.** And the “death rate/No.” value (mice; [14])?
**A.** Its value is 0/5.

**Q.** What about the death rate % (mice; [9]) of the same compound?
**A.** Its death rate % is 0%.

**Q.** What about the “death rate/No.” value (mice; [9]) of the same compound?
**A.** Its value is 0/10.

**Q.** What about the “death rate/day, 1st” value (mice; [15]) of the same compound?
**A.** Its value is 1.

**Q.** And the “death rate/day, 3rd” value (mice; [15])?
**A.** Its value is 2.

**Q.** And the death rate % (mice; [15])?
**A.** Its death rate % is 30%.

**Q.** What about the “death rate/No.” value (mice; [15]) of the same compound?
**A.** Its value is 3/10.

**Q.** What about the “death rate/day, 1st” value (mice; [16]) of the same compound?
**A.** Its value is 8.

**Q.** What about the death rate % (mice; [16]) of the same compound?
**A.** Its death rate % is 80%.

**Q.** What about the “death rate/No.” value (mice; [16]) of the same compound?
**A.** The value was 8/10.

**Q.** And the “death rate/day, 1st” value (mice; [17])?
**A.** The value was 5.

**Q.** What about the death rate % (mice; [17]) of the same compound?
**A.** Its death rate % is 100%.

**Q.** And the “death rate/No.” value (mice; [17])?
**A.** Its value is 5/5.

**Q.** And the “death rate/day, 1st” value (mice; [18])?
**A.** The value was 3.

**Q.** And the death rate % (mice; [18])?
**A.** The death rate % was 100%.

**Q.** And the “death rate/No.” value (mice; [18])?
**A.** The value was 3/3.

**Q.** What about the DL50 (mice; male mice, i.v., dose as N-methyl glucamine salt, 20160 min) of the same compound?
**A.** Its DL50 is 820 ± 34 mg/kg.

**Q.** What about the “DL50, converted to the free compound” value (mice; male mice, i.v., 20160 min) of the same compound?
**A.** The value was 583.63 mg/kg.

**Q.** What about the “acute symptoms of non-tolerance” value (mice; i.v., N-methyl glucamine salt) of the same compound?
**A.** Its value is “accelerated respiration, laying on their side, and clonic tonic cramps before death actually occurred”.

**Q.** What about the “phalloidine poisoning (DL80) measured by death rate and survival time” value [3] of the same compound?
**A.** The value was “prevented”.

**Q.** And the death rate ([3]; male and female mice, 7 days, control 80%)?
**A.** The death rate was 0%.
